According to patent EP4692090A1 (Shanghai Fosun Pharmaceutical (Group) Co., Ltd., priority 2023, dated 2024):
Read-outs that look alike come from different tables or passages of the source.

Columns and labels:
LoVo cells = assay: LoVo cell proliferation assay (CellTiter-Glo); format: cell-based; conditions: Homo sapiens, LoVo, 120 h, maximum concentration 10 µM, 9 concentrations
In short: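 LoVo cells, 2,000 per well, were treated after overnight attachment with 9-point 3-fold dilutions from 10 µM for 5 days at 37 °C. Viability was read by CellTiter-Glo luminescence. Inhibition % was taken relative to DMSO control, and IC50 came from the concentration–inhibition curve.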

ATR kinase = molecular target: T1, ATR kinase (Homo sapiens, UniProt Q13535); assay: Inhibitory effect on ATR kinase activity (Caliper mobility shift, FAM-labeled RAD17 peptide substrate); format: biochemical
T1 construct: purchased Eurofins 14-953
In short: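 Caliper mobility-shift assay with 1 nM ATR, FAM-labeled RAD17 peptide […] and 5 mM ATP in HEPES pH 7.5 with 10 mM MnCl2, run 3 h at 28 °C and stopped with EDTA. Compounds were tested in 10-point 3-fold dilutions from 1 µM. IC50 was fitted from % inhibition of substrate conversion versus blank control.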

[1] = read-out: LoVo IC50 (nM), LoVo cells, 2,000 cells per well, 5 days incubation, CellTiter-Glo
[2] = read-out: ATR kinase IC50, 1 nM ATR kinase (Eurofins), 28°C for 3 hours, maximum concentration 1 µM, 10 concentrations
[3] = LoVo cells, 2,000 cells per well, 5 days incubation, CellTiter-Glo, read-out: LoVo IC50
[4] = 1 nM ATR kinase (Eurofins), 28°C for 3 hours, maximum concentration 1 µM, 10 concentrations, read-out: ATR kinase IC50

T1 sequence (Q13535 whole entry): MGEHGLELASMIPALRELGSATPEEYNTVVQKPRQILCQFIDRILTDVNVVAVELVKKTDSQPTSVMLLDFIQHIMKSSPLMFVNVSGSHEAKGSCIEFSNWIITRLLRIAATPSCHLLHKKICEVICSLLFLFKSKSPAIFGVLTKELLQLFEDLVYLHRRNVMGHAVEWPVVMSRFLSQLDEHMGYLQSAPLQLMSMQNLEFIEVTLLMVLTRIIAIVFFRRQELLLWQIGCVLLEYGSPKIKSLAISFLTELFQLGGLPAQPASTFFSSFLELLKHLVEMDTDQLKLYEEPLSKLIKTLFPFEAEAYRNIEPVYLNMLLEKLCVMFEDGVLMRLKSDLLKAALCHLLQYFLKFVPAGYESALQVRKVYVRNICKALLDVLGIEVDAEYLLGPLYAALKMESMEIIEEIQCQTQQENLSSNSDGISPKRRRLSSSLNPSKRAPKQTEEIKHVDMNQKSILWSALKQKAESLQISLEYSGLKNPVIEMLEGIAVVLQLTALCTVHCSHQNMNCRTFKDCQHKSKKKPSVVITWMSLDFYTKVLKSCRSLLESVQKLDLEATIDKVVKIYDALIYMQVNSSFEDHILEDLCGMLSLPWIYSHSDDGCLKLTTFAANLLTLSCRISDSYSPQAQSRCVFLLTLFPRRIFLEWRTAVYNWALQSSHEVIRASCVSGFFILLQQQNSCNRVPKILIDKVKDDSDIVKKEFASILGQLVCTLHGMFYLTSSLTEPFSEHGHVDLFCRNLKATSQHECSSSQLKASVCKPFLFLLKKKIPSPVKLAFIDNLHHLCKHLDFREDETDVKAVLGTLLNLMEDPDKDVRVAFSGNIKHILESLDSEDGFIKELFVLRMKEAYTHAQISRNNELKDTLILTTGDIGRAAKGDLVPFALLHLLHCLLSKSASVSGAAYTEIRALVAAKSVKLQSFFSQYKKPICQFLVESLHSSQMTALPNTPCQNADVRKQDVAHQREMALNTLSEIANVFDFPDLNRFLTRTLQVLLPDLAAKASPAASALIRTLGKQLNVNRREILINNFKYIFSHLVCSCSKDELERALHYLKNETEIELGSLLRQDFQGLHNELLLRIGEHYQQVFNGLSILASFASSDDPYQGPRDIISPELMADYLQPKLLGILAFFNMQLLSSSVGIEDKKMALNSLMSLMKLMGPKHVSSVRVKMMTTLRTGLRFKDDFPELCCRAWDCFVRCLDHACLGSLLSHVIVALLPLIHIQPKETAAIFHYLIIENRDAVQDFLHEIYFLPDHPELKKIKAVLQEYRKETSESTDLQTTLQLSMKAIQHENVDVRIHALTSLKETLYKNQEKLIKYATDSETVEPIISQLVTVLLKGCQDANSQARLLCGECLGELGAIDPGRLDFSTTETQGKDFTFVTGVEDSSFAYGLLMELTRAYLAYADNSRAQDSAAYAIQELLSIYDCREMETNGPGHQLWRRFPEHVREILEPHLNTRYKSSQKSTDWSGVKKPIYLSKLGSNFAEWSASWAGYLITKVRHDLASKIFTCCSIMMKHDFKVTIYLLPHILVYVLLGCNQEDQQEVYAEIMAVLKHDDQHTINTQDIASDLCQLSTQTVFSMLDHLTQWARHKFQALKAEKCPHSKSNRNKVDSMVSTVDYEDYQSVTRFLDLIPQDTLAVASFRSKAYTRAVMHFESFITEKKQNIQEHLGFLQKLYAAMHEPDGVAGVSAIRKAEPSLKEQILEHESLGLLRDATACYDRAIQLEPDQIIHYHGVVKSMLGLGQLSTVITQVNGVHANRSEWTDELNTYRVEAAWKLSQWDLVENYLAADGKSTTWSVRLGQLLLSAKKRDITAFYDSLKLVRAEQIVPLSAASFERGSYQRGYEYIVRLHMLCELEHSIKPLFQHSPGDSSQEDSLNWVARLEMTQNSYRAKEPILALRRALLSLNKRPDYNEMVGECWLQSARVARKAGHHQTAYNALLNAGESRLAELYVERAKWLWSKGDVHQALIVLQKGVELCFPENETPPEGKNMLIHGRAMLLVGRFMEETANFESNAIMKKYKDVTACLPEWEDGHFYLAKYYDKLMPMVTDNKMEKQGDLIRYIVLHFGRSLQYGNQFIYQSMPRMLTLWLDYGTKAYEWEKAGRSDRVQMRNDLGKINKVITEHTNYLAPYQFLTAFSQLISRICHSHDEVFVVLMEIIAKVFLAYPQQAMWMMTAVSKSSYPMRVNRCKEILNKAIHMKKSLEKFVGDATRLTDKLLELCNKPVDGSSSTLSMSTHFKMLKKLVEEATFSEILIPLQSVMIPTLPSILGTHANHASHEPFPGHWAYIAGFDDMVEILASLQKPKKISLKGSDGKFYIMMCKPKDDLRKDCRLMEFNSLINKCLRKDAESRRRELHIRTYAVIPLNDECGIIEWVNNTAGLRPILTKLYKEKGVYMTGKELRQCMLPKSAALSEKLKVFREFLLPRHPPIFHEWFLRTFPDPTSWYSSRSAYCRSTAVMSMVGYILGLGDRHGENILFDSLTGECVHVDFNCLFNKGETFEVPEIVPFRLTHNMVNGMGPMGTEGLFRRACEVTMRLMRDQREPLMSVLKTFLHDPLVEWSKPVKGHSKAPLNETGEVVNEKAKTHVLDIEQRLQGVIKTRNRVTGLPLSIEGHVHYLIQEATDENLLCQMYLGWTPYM
T1 sequence (Q8WXE1 whole entry partner): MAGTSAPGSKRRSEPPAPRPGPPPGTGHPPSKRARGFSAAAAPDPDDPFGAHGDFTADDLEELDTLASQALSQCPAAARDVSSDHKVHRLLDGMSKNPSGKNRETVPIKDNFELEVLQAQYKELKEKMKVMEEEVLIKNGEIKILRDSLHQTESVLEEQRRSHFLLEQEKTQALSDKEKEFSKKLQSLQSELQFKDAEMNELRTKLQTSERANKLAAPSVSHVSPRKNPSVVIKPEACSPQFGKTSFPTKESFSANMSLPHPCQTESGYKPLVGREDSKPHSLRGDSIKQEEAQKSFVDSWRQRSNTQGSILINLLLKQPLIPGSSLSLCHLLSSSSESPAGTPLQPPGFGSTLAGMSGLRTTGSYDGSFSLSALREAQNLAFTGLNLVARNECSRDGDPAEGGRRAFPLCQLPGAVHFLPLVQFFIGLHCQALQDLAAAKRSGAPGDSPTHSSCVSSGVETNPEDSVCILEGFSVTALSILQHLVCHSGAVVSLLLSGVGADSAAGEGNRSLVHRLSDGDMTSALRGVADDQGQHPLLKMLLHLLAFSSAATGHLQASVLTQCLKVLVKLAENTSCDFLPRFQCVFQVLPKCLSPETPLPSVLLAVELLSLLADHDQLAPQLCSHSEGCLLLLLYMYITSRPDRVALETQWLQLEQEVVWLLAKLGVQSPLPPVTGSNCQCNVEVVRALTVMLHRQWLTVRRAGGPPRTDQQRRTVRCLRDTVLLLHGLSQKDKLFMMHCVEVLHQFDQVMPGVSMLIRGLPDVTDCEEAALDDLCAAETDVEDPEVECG

IC50 (LoVo cells; [3]) | IC50 (ATR kinase; [4]) | Structure (SMILES) | IC50 (LoVo cells; [1]) | IC50 (ATR kinase; [2])
– | – | C[C@@H]1COCCN1c1cc2c3c(nn(-c4cc[nH]n4)c3n1)CCC(=O)N2C1CC(F)(F)C1 [Compound 79, (R)-6-(3,3-difluorocyclobutyl)-4-(3-methylmorpholinyl)-2-(1H-pyrazol-3-yl)-2,6,8,9-tetrahydro-7H-1,2,3,6-tetraazabenzo[cd]azulene-7-one] | 100 to 1000 nM | < 10 nM
– | – | CC(C)N1C(=O)CCn2nc(-c3cc[nH]n3)c3nc(N4CCOC[C@H]4C)cc1c32 [Compound 81, (R)-6-isopropyl-4-(3-methylmorpholinyl)-2-(1H-pyrazol-3-yl)-8,9-dihydro-1,3,6,9a-tetraazabenzo[cd]azulene-7(6H)-one] | < 100 nM | < 10 nM
< 100 nM | < 10 nM | C[C@@H]1COCCN1c1cc2c3c(n1)c(-c1cc[nH]n1)nn3CCC(=O)N2C1CC1 [Compound 82, (R)-6-cyclopropyl-4-(3-methylmorpholino)-2-(1H-pyrazol-3-yl)-8,9-dihydro-1,3,6,9a-tetraazabenzo[cd]azulene-7(6H)-one] | – | –
< 100 nM | 10 to 100 nM | C[C@@H]1COCCN1c1cc2c3c(n1)c(-c1cc[nH]n1)nn3CCC(=O)N2CC1CC1 [Compound 83, (R)-6-(cyclopropylmethyl)-4-(3-methylmorpholino)-2-(1H-pyrazol-3-yl)-8,9-dihydro-1,3,6,9a-tetraazabenzo[cd]azulene-7(6H)-one] | – | –
< 100 nM | < 10 nM | CC(C)CN1C(=O)CCn2nc(-c3cc[nH]n3)c3nc(N4CCOC[C@H]4C)cc1c32 [Compound 84, (R)-6-isobutyl-4-(3-methylmorpholino)-2-(1H-pyrazol-3-yl)-8,9-dihydro-1,3,6,9a-tetraazabenzo[cd]azulene-7(6H)-one] | – | –
< 100 nM | 10 to 100 nM | C[C@@H]1COCCN1c1cc2c3c(n1)c(-c1cc[nH]n1)nn3CCC(=O)N2CCC(F)(F)F [Compound 85, (R)-4-(3-methylmorpholino)-2-(1H-pyrazol-3-yl)-6-(3,3,3-trifluoropropyl)-8,9-dihydro-1,3,6,9a-tetraazabenzo[cd]azulene-7(6H)-one] | – | –
100 to 1000 nM | 100 to 1000 nM | C[C@@H]1COCCN1c1cc2c3c(n1)c(-c1cc[nH]n1)nn3CCC(=O)N2C [Compound 86, (R)-6-methyl-4-(3-methylmorpholino)-2-(1H-pyrazol-3-yl)-8,9-dihydro-1,3,6,9a-tetraazabenzo[cd]azulene-7(6H)-one] | – | –
– | – | C[C@@H]1COCCN1c1cc2c3c(n1)c(-c1cc[nH]n1)nn3CCC(=O)N2CC1(C)CC1 [Compound 87, (R)-6-((1-methylcyclopropyl)methyl)-4-(3-methylmorpholinyl)-2-(1H-pyrazol-3-yl)-8,9-dihydro-1,3,6,9a-tetraazabenzo[cd]azulene-7(6H)-one] | < 100 nM | 10 to 100 nM
– | – | C[C@@H]1COCCN1c1cc2c3c(n1)c(-c1cc[nH]n1)nn3CCC(=O)N2C1(C)CC1 [Compound 88, (R)-6-(1-methylcyclopropyl)-4-(3-methylmorpholinyl)-2-(1H-pyrazol-3-yl)-8,9-dihydro-1,3,6,9a-tetraazabenzo[cd]azulene-7(6H)-one] | < 100 nM | < 10 nM
– | – | C[C@@H]1COCCN1c1cc2c3c(n1)c(-c1cc[nH]n1)nn3CCC(=O)N2C1CC1(F)F (stereo partly drawn) [Compound 89, 6-(2,2-difluorocyclopropyl)-4-((R)-3-methylmorpholinyl)-2-(1H-pyrazol-3-yl)-8,9-dihydro-1,3,6,9a-tetraazabenzo[cd]azulene-7(6H)-one] | 100 to 1000 nM | < 10 nM
100 to 1000 nM | 10 to 100 nM | C[C@@H]1COCCN1c1cc2c3c(n1)c(-c1cc[nH]n1)nn3CCC(=O)N2C1CCOC1 (stereo partly drawn) [Compound 90, 4-((R)-3-methylmorpholino)-2-(1H-pyrazol-3-yl)-6-(tetrahydrofuran-3-yl)-8,9-dihydro-1,3,6,9a-tetraazabenzo[cd]azulene-7(6H)-one] | – | –
100 to 1000 nM | 10 to 100 nM | C[C@@H]1COCCN1c1cc2c3c(n1)c(-c1cc[nH]n1)nn3CCC(=O)N2C1CCOCC1 [Compound 91, (R)-4-(3-methylmorpholino)-2-(1H-pyrazol-3-yl)-6-(tetrahydro-2H-pyran-4-yl)-8,9-dihydro-1,3,6,9a-tetraazabenzo[cd]azulene-7(6H)-one] | – | –
100 to 1000 nM | 10 to 100 nM | C[C@@H]1COCCN1c1cc2c3c(n1)c(-c1cc[nH]n1)nn3CCC(=O)N2C1CC2(CCC2)C1 [Compound 92, (R)-4-(3-methylmorpholino)-2-(1H-pyrazol-3-yl)-6-(spiro [3.3]hept-2-yl)-8,9-dihydro-1,3,6,9a-tetraazabenzo[cd]azulene-7(6H)-one] | – | –
100 to 1000 nM | 10 to 100 nM | C[C@@H]1COCCN1c1cc2c3c(n1)c(-c1cc[nH]n1)nn3CCC(=O)N2 [Compound 93, (R)-4-(3-methylmorpholino)-2-(1H-pyrazol-3-yl)-8,9-dihydro-1,3,6,9a-tetraazabenzo[cd]azulene-7(6H)-one] | – | –
– | – | C[C@@H]1COCCN1c1cc2c3c(n1)c(-c1cc[nH]n1)nn3CCC(=O)N2CC(C)(C)O [Compound 95, (R)-6-(2-hydroxy-2-methylpropyl)-4-(3-methylmorpholinyl)-2-(1H-pyrazol-3-yl)-8,9-dihydro-1,3,6,9a-tetraazabenzo[cd]azulene-7(6H)-one] | 100 to 1000 nM | 10 to 100 nM
– | – | C[C@@H]1COCCN1c1cc2c3c(n1)c(-c1cc[nH]n1)nn3CCC(=O)N2C1CC1C(F)(F)F (stereo partly drawn) [Compound 96, 4-((R)-3-methylmorpholinyl)-2-(1H-pyrazol-3-yl)-6-(2-(trifluoromethyl)cyclopropyl)-8,9-dihydro-1,3,6,9a-tetraazabenzo[cd]azulene-7(6H)-one] | 100 to 1000 nM | 10 to 100 nM
– | – | C[C@@H]1COCCN1c1cc2c3c(n1)c(-c1cc[nH]n1)nn3CCC(=O)N2C1CC2(CC(O)C2)C1 (stereo partly drawn) [Compound 97, (R)-6-(6-hydroxyspiro[3.3]hept-2-yl)-4-(3-methylmorpholinyl)-2-(1H-pyrazol-3-yl)-8,9-dihydro-1,3,6,9a-tetraazabenzo[cd]azulene-7(6H)-one] | 100 to 1000 nM | < 10 nM
– | – | CCC(C)N1C(=O)CCn2nc(-c3cc[nH]n3)c3nc(N4CCOC[C@H]4C)cc1c32 (stereo partly drawn) [Compound 98, 6-(sec-butyl)-4-((R)-3-methylmorpholinyl)-2-(1H-pyrazol-3-yl)-8,9-dihydro-1,3,6,9a-tetraazabenzo[cd]azulene-7(6H)-one] | < 100 nM | < 10 nM
– | – | C[C@@H]1COCCN1c1cc2c3c(n1)c(-c1cc[nH]n1)nn3CCC(=O)N2Cc1cnn(C)c1 [Compound 99, (R)-6-((1-methyl-1H-pyrazol-4-yl)methyl)-4-(3-methylmorpholinyl)-2-(1H-pyrazol-3-yl)-8,9-dihydro-1,3,6,9a-tetraazabenzo[cd]azulene-7(6H)-one] | 100 to 1000 nM | 10 to 100 nM
– | – | CC(C1CC1)N1C(=O)CCn2nc(-c3cc[nH]n3)c3nc(N4CCOC[C@H]4C)cc1c32 (stereo partly drawn) [Compound 100, 6-(1-cyclopropylethyl)-4-((R)-3-methylmorpholinyl)-2-(1H-pyrazol-3-yl)-8,9-dihydro-1,3,6,9a-tetraazabenzo[cd]azulene-7(6H)-one] | 100 to 1000 nM | 10 to 100 nM
– | – | C[C@@H]1COCCN1c1cc2c3c(n1)c(-c1cc[nH]n1)nn3CCC(=O)N2C1(C)COC1 [Compound 101, (R)-4-(3-methylmorpholinyl)-6-(3-methyloxetan-3-yl)-2-(1H-pyrazol-3-yl)-8,9-dihydro-1,3,6,9a-tetraazabenzo[cd]azulene-7(6H)-one] | 100 to 1000 nM | 10 to 100 nM
– | – | C[C@@H]1COCCN1c1cc2c3c(n1)c(-c1cc[nH]n1)nn3CCC(=O)N2C1(C(F)F)CC1 [Compound 102, (R)-6-(1-(difluoromethyl)cyclopropyl)-4-(3-methylmorpholinyl)-2-(1H-pyrazol-3-yl)-8,9-dihydro-1,3,6,9a-tetraazabenzo[cd]azulene-7(6H)-one] | < 100 nM | < 10 nM
– | – | C[C@@H]1COCCN1c1cc2c3c(n1)c(-c1cc[nH]n1)nn3CCC(=O)N2CC#CC(C)(C)O [Compound 103, (R)-6-(4-hydroxy-4-methylpent-2-yn-1-yl)-4-(3-methylmorpholinyl)-2-(1H-pyrazol-3-yl)-8,9-dihydro-1,3,6,9a-tetraazabenzo[cd]azulene-7(6H)-one] | 100 to 1000 nM | 10 to 100 nM
– | – | C[C@@H]1COCCN1c1cc2c3c(n1)c(-c1cc[nH]n1)nn3CCC(=O)N2C1(C#N)CC1 [Compound 105, (R)-1-(4-(3-methylmorpholinyl)-7-oxo-2-(1H-pyrazol-3-yl)-8,9-dihydro-1,3,6,9a-tetraazabenzo[cd]azulene-6(7H)-yl)cyclopropane-1-carbonitrile] | < 100 nM | < 10 nM
– | – | C=CC(C)N1C(=O)CCn2nc(-c3cc[nH]n3)c3nc(N4CCOC[C@H]4C)cc1c32 (stereo partly drawn) [Compound 106, 6-(but-3-en-2-yl)-4-((R)-3-methylmorpholinyl)-2-(1H-pyrazol-3-yl)-8,9-dihydro-1,3,6,9a-tetraazabenzo[cd]azulene-7(6H)-one] | < 100 nM | < 10 nM
– | – | COCC12CC(N3C(=O)CCn4nc(-c5cc[nH]n5)c5nc(N6CCOC[C@H]6C)cc3c54)(C1)C2 [Compound 107, (R)-6-(3-(methoxymethyl)bicyclo[1.1.1]pentan-1-yl)-4-(3-methylmorpholinyl)-2-(1H-pyrazol-3-yl)-8,9-dihydro-1,3,6,9a-tetraazabenzo[cd]azulene-7(6H)-one] | 100 to 1000 nM | < 10 nM
